In test [1] the test system is MCF-7 cells. The test can be described thus: EFC cell swelling during flow-through electroporation. Format: cell-based, human. As to the method:
Cell culture. MCF-7 and MCF-10A cell lines were obtained from American Type Culture Collection (ATCC, Manassas, Va.) and cultured according to recommended protocols. Briefly, MCF-10A cell line was cultured in DMEM F-12 supplemented with Horse Serum (5.6%), EGF (20 ng/ml), Insulin (10 μg/ml), antibiotics (1%) and Hydrocortisone (0.5 μg/ml). The MCF-7 cell line was cultured in DMEM supplemented with FBS (10%), Penicillin/streptomycin (1%) and L-glutamine (2 mM). The TPA treated MCF-7 cell line was generated by treating MCF-7 cells with 100 nM 12-O-tetradecanoylphorbol-13-acetate (TPA) for 18 hr before experiments. In order to detach cells from culture flasks, cells were treated with 0.1% Trypsin/EDTA, washed and resuspended using the electroporation buffer (10 mM Na2HPO4, […], and 250 mM sucrose). For the treatment of MCF-7 cells with colchicine, MCF-7 cells were incubated in the culture medium consisting of 10 μM colchicine (Sigma, St Louis, USA) for 30 min (Rots and Teissie, 1992, Biochim. Biophys. Acta 1111: 45-50). The cell suspension was then centrifuged and the supernatant was discarded. The cells were washed with the electroporation buffer and then resuspended in the electroporation buffer for testing. […]
Microchip operation and data collection/analysis. The microfluidic chip (shown in FIG. 10) was mounted on an IX-71 fluorescence microscope (Olympus, Melville, N.Y.) equipped with a 40× dry objective (NA=0.40) and an ORCA-285 CCD camera (Hamamatsu, Bridgewater, N.J.). […] However, because the cell size is monitored over time, the results should not be affected by the velocity, assuming mechanical effects such as shear stress can be ignored. […] In this case, the duration of electroporation was determined by the flow rate and the dimensions of the microfluidic channel. […]
For EFC tests, the images of cells were taken at a frame rate of 16 Hz. The cell size was monitored over time during electroporation by measuring the two-dimensional area (μm^2) of individual cells in time-sequenced images using ImageJ software from NIH. […]

Test [2] concerns MCF-7 cells. The test can be described thus: Cell viability (PI staining) after flow-through electroporation. To be noted: 0 and 200 V/cm, 200 ms, 1 hr after electroporation. Format: cell-based, human.
In test [3] the test system is MCF-7 cells. To be noted: 100 nM for 18 hr (Johnson et al., 1999); cited from earlier work.

The structures appear in SMILES notation.

Regarding `CCCCCCCCCCCCCC(=O)O[C@@H]1[C@@H](C)[C@@]2(O)[C@@H](C=C(CO)C[C@]3(O)C(=O)C(C)=C[C@@H]23)[C@@H]2C(C)(C)[C@]12OC(C)=O` [TPA, 12-O-tetradecanoylphorbol-13-acetate], the “average cell size, % of original size” value in the test on MCF-7 cells [1] (400 V/cm, 192 ms, 100 nM for 18 hr, untreated MCF-7 148%) is 170%. In addition, the “average percentile cell size from normal distribution fit of histogram” value with MCF-7 cells [1] (400 V/cm, 192 ms, about 100 cells, untreated MCF-7 150%) is on record as 170%. The “survival compared with MCF-10A and untreated MCF-7” value in the test with MCF-7 cells [2] is “better survival rate”. The “increase in invasiveness and metastatic potential” value in the test with MCF-7 cells [3] was 18 fold.
Consider `COc1cc2c(c(OC)c1OC)-c1ccc(OC)c(=O)cc1[C@@H](NC(C)=O)CC2` [colchicine], for which the “effect on cell deformability (swelling during electroporation vs control)” value in the test on MCF-7 cells [1] (10 μM for 30 min) is “cell stiffening”.

The values above are taken from patent US20100221769A1, “ELECTROPORATIVE FLOW CYTOMETRY” (priority 2007, published 2010).
